# How the values were obtained:
# Type in all cases: in vivo
# [1] = system: mice treated with scopolamine (dry eye model); assay: Tear secretion (phenol red cotton thread) in scopolamine-induced dry eye model mice; settings: intraperitoneal injection 100 mg/kg once a day from 3rd day after modeling for 4 days, observed 5 and 7 days, vs normal saline
# [2] = system: mice treated with scopolamine (dry eye model); assay: Corneal staining by fluorescein sodium in scopolamine-induced dry eye model mice; settings: intraperitoneal injection 100 mg/kg, 7th day of treatment
# Method: (§1) Female C57BL/6 mice were selected for the experiment and placed in a perforated cage with a constant fan flow and a humidity <20%. The modeled mice with dry eye were induced by subcutaneous injection of scopolamine (0.5 mg/0.2 ml, 3 times a day) for 7 consecutive days (refer to the following literature: Wu Y, Bu J, Yang Y, et al. Therapeutic effect of MK2 inhibitor on experimental murine dry eye. Invest Ophthalmol Vis Sci. 2017; 58:4898-4907), the mice not treated and fed under a normal condition were used as a control, and the experimental mice had no corneal defects and neovascularization or conjunctival damage.
# Staining by fluorescein sodium was used to observe damage of a corneal epithelial barrier function, observation was performed with a slit lamp, and photographing was performed. The result was shown in FIG. 2 (corneal staining by fluorescein sodium 7 days after modeling of mice treated with scopolamine). Compared with the mice in the control group, the mice in the scopolamine group were positive in staining by fluorescein sodium in scopolamine 7 days after modeling.
# After 7 days of the treatment, staining by sodium fluorescein was used to observe damage of a corneal epithelial barrier function. The lacrimal glands of the mice were taken for qPCR detection. […]
# [3] = system: mice treated with scopolamine (dry eye model); assay: Expression levels of inflammatory factors of the lacrimal gland by qPCR in scopolamine-induced dry eye model mice; settings: intraperitoneal injection 100 mg/kg, 7th day of treatment
# Method: as §1
# After 7 days of modeling, the lacrimal glands and the corneas of the mice were taken to extract mRNA. Expression levels of inflammatory factors TNFα, TGFβ1, and IL-1β were detected by qPCR. The result was shown in FIG. 3 (expression levels of inflammatory factors of the lacrimal glands (left) and the corneas (right) 7 days after modeling of mice treated with scopolamine).
# After 7 days of the treatment, staining by sodium fluorescein was used to observe damage of a corneal epithelial barrier function. The lacrimal glands of the mice were taken for qPCR detection.
# On the 7th day of the treatment, staining by sodium fluorescein was used to observe damage of a corneal epithelial barrier function. The lacrimal glands of the mice were taken for qPCR detection.
# mice with diabetes = assay: Tear secretion in mice with diabetes (STZ type 1 diabetes model, diabetes-associated dry eye); settings: intraperitoneal injection 100 mg/kg once a day for 4 days, observed 5 and 7 days, vs normal saline
# Method: A phenol red cotton thread was used to detect the tear production of mice. One end of the phenol red cotton thread was placed at an inner ⅓ of the conjunctival sac of the lower eyelid, after 20 s, the phenol red cotton thread was taken out, and the length of the cotton thread wetted with tears was measured. The result was shown in FIG. 1 (tear secretion after modeling of mice treated with scopolamine).
# Male C57BL/6 mice were selected, a type 1 diabetes model was established by intraperitoneal injection of streptozotocin (STZ) (the establishment method refers to the prior art: Lingling, Yang, Guohu, Di, Xia, & Qi, et al. Substance p promotes diabetic corneal epithelial wound healing through molecular mechanisms mediated via the neurokinin-1 receptor. Diabetes. 2014; 63: 4262-4274.), and the mice with blood glucose value greater than 300 mg/dL were screened for experiments after 1 month. The mice not treated and fed under a normal condition were used as a control, and the experimental mice had no corneal defects and neovascularization or conjunctival damage. The result was shown in FIG. 11 (tear secretion and ocular surface inflammation after modeling of mice with diabetes, tear secretion (left) and ocular surface inflammation (right)). […]
structure (smiles),measurement,setting,value
NCCc1cc(O)c(O)cc1O [6-hydroxydopamine],tear secretion,[1],significantly increase the tear secretion
same,staining of ocular surface by fluorescein sodium,[2],reduce staining of an ocular surface by fluorescein sodium
same,expression levels of inflammatory factors TNFα and TGFβ1 of the lacrimal gland,[3],decrease expression levels of inflammatory factors TNFα and TGFβ1
same,tear secretion,mice with diabetes,significantly increase the tear secretion

# Reference: patent US20240216375A1, “USE OF S[…] AND/OR ALPHA 1-ADRENERGIC RECEPTOR INHIBITOR IN PREPARING MEDICINE FOR TREATING DRY EYES” (Eye Institute of Shandong First Medical University …, priority 2022, published 2024)
